Measured values: paper PMC3914206

What was measured:
Format in all cases: binding
Settings in all cases: Compound Concentration 10 µM
[1] = target: T1, panel of 442 kinases (Homo sapiens, UniProt O43293)
T1 construct: purchased KINOMEscan
From the text: (§1) We assessed the selectivity of members of this scaffold using the KINOMEscan methodology across a near comprehensive panel of 442 kinases [[18,27]].

[2] = target: T2, panel of 442 kinases (Homo sapiens, UniProt P50750)
T2 construct: purchased KINOMEscan
T2 sequence (P50750 whole entry): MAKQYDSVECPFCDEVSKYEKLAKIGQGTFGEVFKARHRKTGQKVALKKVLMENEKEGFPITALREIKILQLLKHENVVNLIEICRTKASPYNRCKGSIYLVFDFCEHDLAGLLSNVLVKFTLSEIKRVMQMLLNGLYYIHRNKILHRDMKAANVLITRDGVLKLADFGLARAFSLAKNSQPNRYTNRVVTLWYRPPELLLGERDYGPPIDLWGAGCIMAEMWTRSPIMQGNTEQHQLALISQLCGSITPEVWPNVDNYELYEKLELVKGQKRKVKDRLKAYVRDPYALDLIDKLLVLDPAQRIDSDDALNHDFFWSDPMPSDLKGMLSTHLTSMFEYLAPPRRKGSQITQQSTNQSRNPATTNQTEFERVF
From the text: as §1

[3] = target: T3, panel of 442 kinases (Homo sapiens, UniProt Q8IW41)
T3 construct: purchased KINOMEscan
T3 sequence (Q8IW41 1-473): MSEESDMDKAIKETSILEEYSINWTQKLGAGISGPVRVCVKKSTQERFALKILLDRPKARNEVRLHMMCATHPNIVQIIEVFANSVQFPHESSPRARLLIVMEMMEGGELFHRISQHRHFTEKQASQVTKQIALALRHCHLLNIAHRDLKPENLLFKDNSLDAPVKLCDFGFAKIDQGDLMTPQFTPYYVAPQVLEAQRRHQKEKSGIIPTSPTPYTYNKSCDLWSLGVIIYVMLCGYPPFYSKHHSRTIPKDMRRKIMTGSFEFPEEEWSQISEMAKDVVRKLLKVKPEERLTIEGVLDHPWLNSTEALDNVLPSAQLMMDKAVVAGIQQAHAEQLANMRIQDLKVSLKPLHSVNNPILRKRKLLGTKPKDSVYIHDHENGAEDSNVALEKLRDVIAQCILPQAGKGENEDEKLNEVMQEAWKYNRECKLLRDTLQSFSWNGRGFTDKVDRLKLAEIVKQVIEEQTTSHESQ
From the text: as §1

T1 sequence (O43293 whole entry): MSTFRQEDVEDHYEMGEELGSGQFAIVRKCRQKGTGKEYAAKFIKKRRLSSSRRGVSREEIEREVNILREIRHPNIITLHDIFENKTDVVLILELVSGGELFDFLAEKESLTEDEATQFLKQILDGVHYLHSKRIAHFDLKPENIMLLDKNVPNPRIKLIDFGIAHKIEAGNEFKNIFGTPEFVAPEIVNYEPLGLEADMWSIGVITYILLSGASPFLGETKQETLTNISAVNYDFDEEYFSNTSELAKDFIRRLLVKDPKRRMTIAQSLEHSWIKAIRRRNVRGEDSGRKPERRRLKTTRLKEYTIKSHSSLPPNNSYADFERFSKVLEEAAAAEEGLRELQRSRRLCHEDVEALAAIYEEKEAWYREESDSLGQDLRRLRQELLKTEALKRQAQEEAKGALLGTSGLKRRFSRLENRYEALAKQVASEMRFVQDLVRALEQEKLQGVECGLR

Structure (SMILES) | KINOMEscan: DAPK3 [1] | KINOMEscan: CDK9 [2] | KINOMEscan: MAPKAPK5 [3]
COc1cc(C(=O)N2CCC(N3CCN(C)CC3)CC2)ccc1Nc1ncc2c(n1)N(C)c1ccccc1C(=O)N2C [15 (LRRK2-IN-1)] | 67 | 100 | 97
COc1cc(C(=O)N2CCC(N3CCN(C)CC3)CC2)ccc1Nc1ncc2c(n1)N1CCc3cccc(c31)C(=O)N2C [Compound 24] | – | 96 | –
COc1cc(C(=O)N2CCC(N3CCN(C)CC3)CC2)ccc1Nc1ncc2c(n1)N(C1CCCC1)c1ccccc1C(=O)N2C [Compound 25, 11-cyclopentyl-2-((2-methoxy-4-(4-(4-methylpiperazin-1-yl)piperidine-1-carbonyl)phenyl)amino)-5-methyl-5H-benzo[e]pyrimido[5,4-b][1,4]diazepin-6(11H)-one] | 86 | 98 | 96
CCOc1cc(C(=O)N2CCC(N3CCN(C)CC3)CC2)ccc1Nc1ncc2c(n1)N(C1CCCC1)c1ccccc1C(=O)N2C [Compound 26] | 100 | 100 | 100
